Measured values as given in patent US7572436B1, “Thionin as an antineoplastic and immunostimulant” (priority 2000, dated 2009).
pKd: −log10 of the molar value. “And” between values parts separate entries of the source, which are not always exact repeats. Equal entries are not always repeated. Where two headings read alike, the source gives them in different places. Where no end group is shown, it is not given here.

Key:
IL-2 = test: ELISA of IL-2 production by splenocytes; format: cell-based; details: Balb C murine spleen cells, 0.05 μg/ml PT, 48 hours
Experimental: Identical plates are set up for an immunoassay and a mitogen assay. Mouse splenocytes and immuno-stimulating drugs are plated in duplicate wells (immunoassay) and triplicate wells (mitogen assay) in 96-well microplates as described above. […] At the end of the activation/proliferation period, the two identical plates are harvested as an immunoassay for cytokines or harvested as a mitogen assay (to which ^3H-thymidine has been added approximately 16-18 hours earlier).
Immunoassay kits used to detect IL-1β, IL-2, and IL-12 were the murine Quantikine M™ kits produced by R&D Systems (Minneapolis, Minn.). The general procedure is the same for all interleukin cytokines, and is described in the instructions provided by the manufacturer. […]
(§1) One hundred microliters of Substrate Solution are added to each well and incubated 30 minutes at room temperature. […] The plate is read for absorbence at 450 nm and at 540 nm for background readings.
(§2) To calculate the results, the duplicate readings for each pair of standard, control, and test samples are averaged and the average background optical density readings are subtracted. […] Picograms of cytokine are determined from the standard curve. Mitogenic activity determined from the cpm of ^3H-thymidine is compared to the concentrations of cytokine in the experimental samples in the corresponding immunoassay. […]

[1] = tested on: murine Balb/C splenocytes; test: Binding of ^125I-labeled PT to mouse spleen cells; details: for pKd: ^125I-PT
Text: Splenocytes are isolated from the spleens of selected mice (as described herein), treated to remove red cells, resuspended in PBS after washing, and counted using Trypan Blue exclusion. The average yield of spleen cells (splenocytes) from one spleen is 1−1.5×10^8 cells. A desired concentration of cells per sample tube in the binding assay is more than 5×10^6 cells/ml.
The protocol for the binding assay has been previously described (Vernon and Rogers, Toxicon 30:711-721, 1992). Reactions were carried out in a total volume of 400 μl in each microcentrifuge tube (160 μl PBS with ^125I-labeled PT at varying concentrations with 240 μl of spleen cell suspensions).
A total of 10^7 spleen cells were placed in each of the reaction microfuge tubes, and allowed to equilibrate at room temperature for five minutes. To each tube was added radiolabeled thionin (e.g., ^125I-PT) in amounts from 0.1 to 20 μg/ml. The radiolabeled PT used in the experiments contained approximately 10^6 counts/minute (0.3 μCi) per μg PT. The suspension was incubated at room temperature for 10 minutes, then placed on ice for an additional 10 minutes. The tubes were then centrifuged to pellet the cells.
The radioactivity in the supernatant fluid was determined from an aliquot removed from the tube. The plastic pipette tip used to transfer the aliquot was also put in the vial and counted in a gamma ray counter along with the transferred aliquot of the supernatant fluid, since this tip may absorb PT from the aliquot during transfer. The radioactivity amount determined represents the “free” PT, not bound to a cell.
After removal of the entire supernatant, the sedimented cells were washed twice in PBS, and the entire final washed suspension of cells was transferred to a vial for radioactivity counting. As with measurement of radioactivity in the supernatant, the pipette tip used to transfer the cell sample was added to the vial to include any PT that might be bound to the plastic tip. This measures the total “bound” PT.
Non-specific binding was determined in the presence of a 100-fold excess of non-radioactive iodinated PT. The binding data reported were obtained by subtracting the non-specific from the total binding. Triplicate assays were performed for each concentration of PT employed.

[2] = Toxic effect of PT on mice in vivo (LD50); design: species or system mouse
IL-12 = test: ELISA of IL-12 production by splenocytes; format: cell-based, Balb C murine; details: 48 hours, PT 0.05 μg/ml
Experimental: Identical plates are set up for an immunoassay and a mitogen assay. Mouse splenocytes and immuno-stimulating drugs are plated in duplicate wells (immunoassay) and triplicate wells (mitogen assay) in 96-well microplates as described above. The incubation at 37° C. in a humidified 5% CO2 incubator may vary from three to five days. At the end of the activation/proliferation period, the two identical plates are harvested as an immunoassay for cytokines or harvested as a mitogen assay (to which ^3H-thymidine has been added approximately 16-18 hours earlier).
Immunoassay kits used to detect IL-1β, IL-2, and IL-12 were the murine Quantikine M™ kits produced by R&D Systems (Minneapolis, Minn.). The general procedure is the same for all interleukin cytokines, and is described in the instructions provided by the manufacturer. All reagents are used at room temperature, and are prepared according to kit instructions.
The immunoassay plate is centrifuged at 200×g to pellet all cells. A 50 μl aliquot of Assay Diluent is first added to the center of each special enzyme-coated well supplied with the kit. Next, 50 μl of standard, control or test sample of supernatant from the immunoassay incubation plate is added to each well. This is incubated at room temperatures for two hours.
Liquid is aspirated from the wells, and the wells are washed five times with surfactant diluted 1:25 with distilled water. A 100 μL aliquot of Conjugate is added to each well and incubated two hours at room temperature. […]
as §1, §2

Pyrularia thionin (KSCCRNTWARNCYNVCRLPGTISREICAKKCDCKIISGTTCPSDYPK; ends and bridges not checked; also: labeled with 125I) [PT]
stimulation of production of IL-2 (IL-2): not conclusive | pKd ([1]; PT up to 1 μg/ml, read-out: dissociation constant, high affinity binding site): 7.19 and ~7.19 | pKd ([1]; PT up to 20 μg/ml, read-out: dissociation constant, low affinity binding site): 5.80 and ~5.80 | number of sites per cell, high affinity site ([1]; murine spleen cells): 1.4×10^5 | number of sites per cell, low affinity site ([1]; murine spleen cells): 1×10^6 | immunogenicity (Immunogenicity of PT): not immunogenic | LD50 ([2]; for a 20-gram mouse): 30 µg | LD50 relative to the amount with maximal protective (immunostimulatory) effect ([2]; versus 3 μg PT): ten times greater | IL-12 (IL-12; Experiment 1, KLH 10 μg/ml, control 1.5): 5.6 ± 0.3 pg/mL | IL-12 (IL-12; Experiment 2, control 21): 24 ± 0.3 pg/mL
